Measurements as given in ChEMBL document CHEMBL1201862, “PubChem BioAssay data set” (2004).
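Grown in 96-well plates, cells were treated for 48 hours with each compound at five concentrations. Insufficient inhibition: endpoint recorded as highest concentration tested. The concentration for 50% growth inhibition is given as GI50.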 The source made the active and inactive calls. Rule as the data show it: active = GI50 up to about 1.1 µM and inactive = higher.

Assays:
Test in all cases: NCI-60 cell line screen, 48 h
BT-549 = system: BT-549
SNB-19 = system: SNB-19
SK-OV-3 = system: SK-OV-3
SR = system: SR
OVCAR-8 = system: OVCAR-8
T47D = system: T47D
RPMI-8226 = system: RPMI-8226
CCRF-CEM = system: CCRF-CEM
PC-3 = system: PC-3
UO-31 = system: UO-31
EKVX = system: EKVX
LOX IMVI = system: LOX IMVI
MDA-MB-231 = system: MDA-MB-231
SK-MEL-28 = system: SK-MEL-28
MCF7 = system: MCF7
NCI-H460 = system: NCI-H460
IGROV-1 = system: IGROV-1
SNB-75 = system: SNB-75
NCI-H23 = system: NCI-H23
MDA-MB-435 = system: MDA-MB-435

Measured: GI50

OCCCCCNc1cc(O)nc(O)n1
inactive: BT-549 > 100 µM | SNB-19 > 100 µM | SK-OV-3 > 100 µM | SR > 100 µM | OVCAR-8 > 100 µM | T47D > 100 µM | RPMI-8226 > 100 µM | CCRF-CEM > 100 µM | PC-3 > 100 µM | UO-31 > 100 µM | EKVX > 100 µM | LOX IMVI > 100 µM | MDA-MB-231 > 100 µM | SK-MEL-28 > 100 µM | MCF7 > 100 µM | NCI-H460 > 100 µM | IGROV-1 > 100 µM | SNB-75 > 100 µM | NCI-H23 > 100 µM | MDA-MB-435 > 100 µM

NC(=O)NCCSC1CCCCC1O (configuration not stated)
inactive: BT-549 > 100 µM | SNB-19 > 100 µM | SK-OV-3 > 100 µM | SR > 100 µM | OVCAR-8 > 100 µM | T47D > 100 µM | RPMI-8226 > 100 µM | PC-3 > 100 µM | UO-31 > 100 µM | EKVX > 100 µM | LOX IMVI > 100 µM | MDA-MB-231 > 100 µM | SK-MEL-28 > 100 µM | MCF7 > 100 µM | NCI-H460 > 100 µM | IGROV-1 > 100 µM | SNB-75 > 100 µM | NCI-H23 > 100 µM | MDA-MB-435 > 100 µM

O=C(O)CSCC(=O)c1ccccc1
inactive: BT-549 > 100 µM | SNB-19 > 100 µM | SK-OV-3 > 100 µM | SR > 100 µM | OVCAR-8 > 100 µM | T47D > 100 µM | RPMI-8226 > 100 µM | PC-3 > 100 µM | UO-31 > 100 µM | EKVX > 100 µM | LOX IMVI > 100 µM | MDA-MB-231 > 100 µM | SK-MEL-28 > 100 µM | MCF7 > 100 µM | NCI-H460 > 100 µM | IGROV-1 > 100 µM | SNB-75 > 100 µM | NCI-H23 > 100 µM | MDA-MB-435 > 100 µM

C=C[C@]1(O[Si](C)(C)C)C[C@@]2(C(=O)OCC)C(O)C(=O)N3CCc4cc(OC)c(OC)cc4[C@]312 (some centres not stated)
inactive: BT-549 > 100 µM | SNB-19 > 100 µM | SK-OV-3 > 100 µM | SR > 100 µM | OVCAR-8 > 100 µM | T47D > 100 µM | RPMI-8226 61.1 µM | CCRF-CEM > 100 µM | PC-3 93.8 µM | UO-31 > 100 µM | EKVX > 100 µM | LOX IMVI > 100 µM | MDA-MB-231 > 100 µM | SK-MEL-28 > 100 µM | MCF7 90.8 µM | NCI-H460 > 100 µM | IGROV-1 > 100 µM | SNB-75 > 100 µM | NCI-H23 > 100 µM | MDA-MB-435 > 100 µM

O=c1n(-c2ccccc2)c(=O)n2n1C1CCC2CC1
inactive: BT-549 > 100 µM | SNB-19 > 100 µM | SK-OV-3 > 100 µM | SR > 100 µM | OVCAR-8 > 100 µM | T47D > 100 µM | RPMI-8226 > 100 µM | CCRF-CEM > 100 µM | PC-3 > 100 µM | UO-31 > 100 µM | EKVX > 100 µM | LOX IMVI > 100 µM | MDA-MB-231 > 100 µM | SK-MEL-28 > 100 µM | MCF7 > 100 µM | NCI-H460 > 100 µM | IGROV-1 > 100 µM | SNB-75 > 100 µM | NCI-H23 > 100 µM | MDA-MB-435 > 100 µM

O=C(O)c1cc2ccccc2c2c1C(=O)c1ccccc1-2
inactive: BT-549 > 100 µM | SNB-19 57 µM | SK-OV-3 56.6 µM | SR 99.8 µM | OVCAR-8 > 100 µM | T47D > 100 µM | RPMI-8226 65.8 µM | CCRF-CEM > 100 µM | PC-3 > 100 µM | UO-31 46 µM | LOX IMVI > 100 µM | MDA-MB-231 > 100 µM | SK-MEL-28 58.3 µM | MCF7 98.9 µM | NCI-H460 > 100 µM | IGROV-1 58.7 µM | SNB-75 > 100 µM | NCI-H23 > 100 µM | MDA-MB-435 > 100 µM

N#CC(NNC(=O)c1c(Cl)c(Cl)c(Cl)c(Cl)c1-c1nc2cc(C(=O)c3ccccc3)ccc2[nH]1)c1ccccc1 (configuration not stated)
inactive: BT-549 9.2 µM | SNB-19 12.4 µM | SK-OV-3 13 µM | SR 2.84 µM | OVCAR-8 23.7 µM | T47D 4.79 µM | RPMI-8226 6.85 µM | CCRF-CEM 4.02 µM | PC-3 7.14 µM | UO-31 14 µM | EKVX 17.9 µM | LOX IMVI 9.35 µM | MDA-MB-231 9.2 µM | SK-MEL-28 17.8 µM | MCF7 2.9 µM | IGROV-1 12.5 µM | SNB-75 3.95 µM | NCI-H23 7.45 µM | MDA-MB-435 2.82 µM

O=c1onc2c3ccccc3ncn12
inactive: BT-549 > 100 µM | SNB-19 > 100 µM | SK-OV-3 > 100 µM | SR > 100 µM | OVCAR-8 > 100 µM | T47D > 100 µM | RPMI-8226 > 100 µM | CCRF-CEM > 100 µM | PC-3 > 100 µM | UO-31 > 100 µM | EKVX > 100 µM | LOX IMVI > 100 µM | MDA-MB-231 > 100 µM | SK-MEL-28 > 100 µM | MCF7 > 100 µM | IGROV-1 > 100 µM | SNB-75 > 100 µM | NCI-H23 > 100 µM | MDA-MB-435 > 100 µM

Cc1cc(NS(=O)(=O)c2ccc(NC(NC(=O)C(C(F)(F)F)C(F)(F)F)(C(F)(F)F)C(F)(F)F)cc2)no1
inactive: BT-549 > 100 µM | SNB-19 > 100 µM | SK-OV-3 1.96 µM | SR > 100 µM | OVCAR-8 > 100 µM | T47D > 100 µM | RPMI-8226 > 100 µM | CCRF-CEM > 100 µM | PC-3 > 100 µM | UO-31 > 100 µM | EKVX > 100 µM | LOX IMVI > 100 µM | MDA-MB-231 > 100 µM | SK-MEL-28 > 100 µM | MCF7 > 100 µM | NCI-H460 > 100 µM | IGROV-1 > 100 µM | SNB-75 > 100 µM | NCI-H23 > 100 µM | MDA-MB-435 > 100 µM

CN(C)c1ccc(/C=C(\NC(=O)c2ccccc2)C2NC(Cc3c[nH]c4ccccc34)C(=O)O2)cc1 (configuration not stated)
inactive: BT-549 12.1 µM | SNB-19 12 µM | SK-OV-3 > 59.4 µM | SR 41.8 µM | OVCAR-8 5.98 µM | T47D > 54 µM | RPMI-8226 6.71 µM | CCRF-CEM 8.91 µM | PC-3 27.4 µM | UO-31 17.3 µM | EKVX 8.99 µM | LOX IMVI > 24.8 µM | MDA-MB-231 > 50.4 µM | SK-MEL-28 > 100 µM | MCF7 6.65 µM | NCI-H460 3.19 µM | IGROV-1 5.37 µM | SNB-75 39.4 µM | NCI-H23 14 µM | MDA-MB-435 10.8 µM

C[C@]12CC[C@H](O)CC1=CC[C@@H]1[C@@H]2CC[C@]2(C)c3nc(Cl)ccc3C[C@@H]12
inactive: BT-549 26.1 µM | SNB-19 36.1 µM | SK-OV-3 42.7 µM | SR 11.4 µM | OVCAR-8 62.5 µM | T47D > 63.4 µM | RPMI-8226 39.4 µM | CCRF-CEM 8.17 µM | PC-3 74.3 µM | UO-31 7.52 µM | EKVX 11.4 µM | LOX IMVI 57.1 µM | MDA-MB-231 > 94.6 µM | SK-MEL-28 > 64.1 µM | MCF7 > 64.7 µM | NCI-H460 28.1 µM | IGROV-1 61.5 µM | SNB-75 25 µM | NCI-H23 24.6 µM | MDA-MB-435 6.76 µM

C[C@@H]1CC[C@H]2[C@H](C)C(OC3O[C@@H]4O[C@@]5(C)CC[C@H]6[C@H](C)CC[C@@H]([C@@H]3C)[C@@]46O5)O[C@@H]3O[C@@]4(C)CC[C@@H]1[C@]32O4 (some centres not stated)
inactive: BT-549 > 100 µM | SNB-19 > 100 µM | SK-OV-3 > 100 µM | SR > 100 µM | OVCAR-8 > 100 µM | T47D > 100 µM | RPMI-8226 > 100 µM | CCRF-CEM > 100 µM | PC-3 > 100 µM | EKVX > 100 µM | LOX IMVI > 100 µM | MDA-MB-231 > 100 µM | SK-MEL-28 > 100 µM | MCF7 > 100 µM | NCI-H460 > 100 µM | SNB-75 > 100 µM | NCI-H23 > 100 µM | MDA-MB-435 > 100 µM

NC(=O)c1csc(C2(O)COC(CO)C2O)n1 (configuration not stated)
inactive: BT-549 > 100 µM | SNB-19 > 100 µM | SK-OV-3 > 100 µM | SR > 100 µM | OVCAR-8 > 100 µM | T47D > 100 µM | RPMI-8226 > 100 µM | CCRF-CEM > 100 µM | PC-3 > 100 µM | UO-31 > 100 µM | EKVX > 100 µM | LOX IMVI > 100 µM | MDA-MB-231 > 100 µM | SK-MEL-28 > 100 µM | MCF7 > 100 µM | NCI-H460 > 100 µM | IGROV-1 > 100 µM | SNB-75 > 100 µM | NCI-H23 > 100 µM | MDA-MB-435 > 100 µM

CC(O)(CCCCCl)c1nc2ccccc2s1 (configuration not stated)
inactive: BT-549 67.9 µM | SNB-19 > 100 µM | SK-OV-3 > 100 µM | SR 53 µM | OVCAR-8 > 100 µM | T47D 29.8 µM | RPMI-8226 97.5 µM | CCRF-CEM > 100 µM | PC-3 34.9 µM | UO-31 64.1 µM | EKVX 52.4 µM | LOX IMVI 48.4 µM | MDA-MB-231 96.4 µM | SK-MEL-28 > 100 µM | MCF7 71.8 µM | IGROV-1 > 100 µM | SNB-75 > 100 µM | NCI-H23 > 100 µM | MDA-MB-435 > 100 µM
